Test results as given in US10744188B2, “High osteocalcin microcrystalline hydroxyapatite for calcium supplement” (Waitaki Biosciences, priority 2013, dated 2020).
Entries after “also recorded” stand apart in the source; their conditions may differ. Structures can show the parent of a compound that is named as a salt.

Tests used:
[1] = blood ionized calcium concentration after ingestion of calcium supplement (clinical tests, FIG. 1)
Description: For some time microcrystalline hydroxyapatite (MCHA) manufactured from animal bones has been used as a slightly unconventional calcium supplement. Considering that bone mineral is largely calcium phosphate in the form of hydroxyapatite, it seems logical to use MCHA as a source of bone calcium. However, there can be some difficulty in purifying MCHA from native bones because there is considerable excess protein and lipid that must be removed to provide a stable as well as readily digestible product. As might be imagined there is considerable variation in the process parameters for making an MCHA product. In a study intended to compare MCHA to conventional calcium supplements, the inventors analyzed MCHA produced using varied protocols. They were surprised to discover that depending on how the MCHA is manufactured, its rate of bioabsorption changes quite dramatically. After considerable experimentation, the inventors developed the current product which was then compared to calcium carbonate and calcium citrate in both an absorption (measured by blood calcium concentration) and a bone mineralization/density study.
However, it must be kept in mind that the blood calcium concentration is maintained by withdrawing calcium from the bones if the dietary supply is insufficient.
In FIG. 1 the blood levels of ionized calcium of two different MHCA preparations (see below for preparation details) are compared to blood calcium levels provided by other calcium supplements.

[2] = 90 day study of bone calcium level and markers of bone mineralization and turnover; type: in vivo; settings: 90 day experimental duration

| duration of spiking of blood calcium concentration ([1]; human, in vivo) | Compound | blood ionized calcium level after ingestion ([1]; human, in vivo) | blood ionized calcium level after ingestion ([1]; in vivo) | bone calcium level and other markers of bone mineralization and turnover, compared with calcium-free placebo [2] | bone calcium level and other markers of bone mineralization and turnover, supplements compared with each other [2] | duration of spiking of blood calcium concentration ([1]; after ingestion) | blood ionized calcium level after ingestion ([1]; compared with calcium-free placebo/control) |
| --- | --- | --- | --- | --- | --- | --- | --- |
| ca. 8 hour | O=C(O)CC(O)(CC(=O)O)C(=O)O [calcium citrate] | spike above the normal 1 mM concentration | rapid increase in ionized blood calcium | statistically significantly different from the calcium-free placebo | not statistically significantly different from each other | – | – |
| – | microcrystalline hydroxyapatite [MCHA] | – | not statistically significantly different from the calcium-free placebo | – | – | – | – |
| – | O=C([O-])[O-].[Ca+2] [calcium carbonate] | – | – | statistically significantly different from the calcium-free placebo | not statistically significantly different from each other | ca. 8 hour | spike above the normal 1 mM concentration; also recorded: rapid increase in ionized blood calcium |
